Like-named read-outs stand apart in the source and are kept apart here.
What was measured:
[1] = tested on: Hyaluronidase (HYAL); test: HYAL activity assay in cell lysate; type: cell-based, human
Method: (§1) Protein was estimated by nanodrop before being used for the enzyme assays.
(§2) The HYAL assay was performed by the standard reported protocol ([35]). Approximately 10 μg of cell lysate added in enzyme diluent buffer (77 mM sodium chloride, 20 mM sodium phosphate, 0.01% albumin, and pH 7.0 at 37°C). The reaction mixture was incubated for 45 min after adding HA (substrate). The mixture was distributed in three parts, each well of the plate containing 25 μl followed by the addition of 125 μl of diluent buffer (79 mM acetic acid, 24 mM sodium acetate, 0.1% albumin bovine, and pH 3.75). The absorbance was measured at 600 nm after 10 min incubation. The graph was shown in the terms of percentage inhibition. Hemoglobin was used as a substrate to determine CATD activity ([36]). Cell lysate (10 μg) was incubated with a reaction cocktail (2.5% of hemoglobin, deionised water, 400 mM citrate buffer, and pH 2.8) for 30 min at 37°C; the reaction was terminated by adding 5% TCA. Then, 200 μl of supernatant was taken in plate after centrifuge and absorbance were measured at 280 nm.

[2] = target: T1, Cathepsin D (CATD) (Homo sapiens, UniProt P07339); test: CATD activity assay in cell lysate; type: cell-based
T1 construct: endogenous in cells; host or cells: FaDu, K562, A549
Method: as §1, §2

[3] = target: Cyclooxygenase-2 (COX-2) (Homo sapiens, UniProt P35354); test: COX-2 activity assay in cell lysate; conditions: A549, 100 μM
Method: (§9) Cyclooxygenase-2 (COX-2) activity was measured as reported by Kulmaczand Lands ([33]). The reaction cocktail consists of Tris-HCl buffer (100 mM and pH 8.0), EDTA (3 μM), hematin (15 μM), and cell lysate. After incubation, arachidonic acid (AA) and N,N,N′,N′-tetra methyl-p-phenylenediamine (TMPD) was added to 96 well plates to initiate the reaction. The reaction mixture was immediately auto mixed using the Multiscan Go of Thermo Scientific spectrophotometer, and absorbance was measured at 590 nm ([33]). The enzyme inhibition was calculated concerning control. […] Approximately 40 μM of AA was mixed to initiate the reaction, and the plate was kept for 4 min at room temperature. The reaction was terminated by adding an equal ratio of reagent 1 (4.5 mM FeSo4 in HCl) and reagent 2 (3% NH4SCN). The absorbance was taken at 480 nm using a spectrophotometer ([34]). The enzyme inhibition was compared concerning control.

[4] = tested on: FaDu cells; test: Mitochondrial membrane potential (Rhodamine 123); type: cell-based, human
Method: (§3) The cell cycle analysis was carried out by the protocol reported by Fatima et al. ([40]). The cell lines were fixed with 70% ethanol. Before analysis, fixed cells were washed at least two times with PBS and PI solution containing RNase A to stain the cells. The samples were run on a flow cytometer within 1 h. Treated FaDu cells were incubated with 10 μM of DCFH-DA dye for 30 min then fluorescence was measured at 485/530 nm of […]. For FACS analysis, treated cells were incubated with 10 μM of DCFH-DA dye for 30 min, and the samples were analyzed within 1 h ([41]). The protocol for the analysis of MMP was similar to that of DCFH-DA except for Rhodamine 123 dye ([41]). The experiment was also carried out as per the method reported in Annexin-V-FITC apoptosis detection kit I (BD Pharmingen^TM, Catalog No. 556547). For the assay, 1 × 10^6 cells were grown in 6 well plates and treatment was given 24 h. The next day, cells were washed with cold PBS, and the pellet was resuspended in 100 μl (1X binding) buffer and left for 15 min followed by incubation with a dual fluorescent dye (5 μl FITC and 5 μl PI) for 10 min. The cell suspension was maintained upto 500 μl from the 1X binding buffer. The stained cells were analyzed by flow cytometer within 1 h ([42]).

[5] = tested on: FaDu; test: MTT anti-proliferative assay; type: cell-based; conditions: Homo sapiens
Method: (§4) The cell lines used for the present study were K562 (erythroid leukemia), COLO-205 (colon carcinoma), FaDu (hypopharyngeal carcinoma), MCF-7 (breast ER+ve adenocarcinoma), WRL-68 (hepatocellular carcinoma), A549 (lung carcinoma), and HEK-293 (embryonic kidney). These cell lines were purchased from the National Center for Cell Sciences (NCCS), Pune, India, except FaDu, which Dr. Sarkar endowed from CSIR-Central Drug Research Institute, Lucknow, Uttar Pradesh, India.
(§5) The MTT assay was performed following the protocol as Mosmann ([30]) determined. […] The next day, 10 μl (500 μg/ml) of MTT dye was added to each well of the plate and further incubated for 4 h. After that, the formazan crystal was dissolved in 100 μl DMSO and absorbance was measured at 570 nm. The SRB, NRU, and MTT assays were calculated using percentage cytotoxicity concerning control ([30]).

[6] = target: T2, Ornithine decarboxylase (ODC) (Homo sapiens, UniProt P11926); test: ODC activity assay in lysate of treated cells; type: cell-based; conditions: A549, 100 μM
T2 construct: endogenous in cells; host or cells: A549

[7] = tested on: K562; test: SRB anti-proliferative assay; type: cell-based; conditions: Homo sapiens, K562, 72 h
Method: as §4
(§6) The SRB assay was carried out by following the method reported by Skehan et al. ([27]) with a slight modification ([28]). In 96 well plates, approximately ~2 ×10^3 cells per well were seeded. […] Approximately 20% of TCA was added in treated plates to precipitate cellular proteins, followed by washing cells with tap water and adding 10 μl SRB dye (0.4%) in each well of the plate. Then, the plate was washed with 1% acetic acid to remove the unbound dye. The bound dye was dissolved in 200 μl tris base (10 mM). The absorbance was finally measured at 515 nm using a spectrophotometer (Multiskan^TM Go SkanIt Software, version 4.0, Thermo Fisher Scientific, Waltham, MA, USA).

[8] = tested on: FaDu; test: SRB anti-proliferative assay; type: cell-based; conditions: Homo sapiens, 72 h
Method: as §4, §6

[9] = tested on: resistant species; conditions: against the resistant species; ref [8], [9]; cited from earlier work
[10] = tested on: FaDu cells; test: Cell cycle analysis (PI, flow cytometer); type: cell-based, human; conditions: PI staining
Method: as §3

[11] = tested on: WRL-68; test: Anti-proliferative activity (SRB, MTT, NRU assays); type: cell-based, human; conditions: WRL-68, higher tested concentration 100 μM
Method: as §4, §6
(§7) The NRU assay was carried out by Babich and Borenfreund ([29]) method. Similar to the SRB assay, 5 μl NRU dye was added to the treated plate. Then, cells were washed with fixative solution after 3 h of incubation; further, the bound dye was solubilized in a dissolving solution. The absorbance was measured at 540 nm ([29]).
as §5

[12] = tested on: MCF-7; test: Anti-proliferative activity (SRB, MTT, NRU assays); type: cell-based, human; conditions: MCF-7, higher tested concentration 100 μM
Method: as §4, §6, §7, §5

[13] = tested on: COLO-205; test: Anti-proliferative activity (SRB, MTT, NRU assays); type: cell-based, human; conditions: COLO-205, higher tested concentration 100 μM
Method: as §4, §6, §7, §5

[14] = tested on: HEK-293 (normal) cell line; test: Anti-proliferative activity (SRB, MTT, NRU assays); type: cell-based, human
Method: as §4, §6, §7, §5

[15] = tested on: Sarcoma-180 (S-180) tumor; conditions: for Tumor growth inhibition: days 1-9, evaluated day 12; for Tumor cell count Mean ± S.E / Tumor volume Mean ± S.E / Tumor weight Mean ± S.E: days 1-9, evaluated day 12, n = 5
Method: The S-180 cells were collected from Swiss albino mice harboring 8–10 days old cells from the peritoneal cavity. On day 0, the S-180 cells (1 × 10^7 cells/ml) were injected intra-peritoneal in non-inbred female Swiss albino mice (22–25 g, 8–10 weeks old) selected for the experiment. The next day (Day 1), the animals were randomized and divided into three treatment groups, one positive control group and one vehicle control group containing 5 animals in each group. […] The fourth group was given 5-fluorouracil; positive control at a dose of 20 mg/kg bw i.p. from day 1–9, and the fifth group (control) was administered normal saline (0.2 ml i.p.) for 9 days. On day 12, the animals were sacrificed, and the fluid was collected from each mouse's peritoneal cavity to evaluate tumor growth ([43]). The tumor growth inhibition was calculated using the following formula.
Tumor Growth Inhibition(%)=(Number of tumor cells in control group-Number of tumor cells in the test group)/Number of tumor cells in the control group×100

[16] = tested on: FaDu cells; test: ROS production (DCFH-DA); type: cell-based, human
Method: as §3

[17] = tested on: A549; test: NRU anti-proliferative assay; type: cell-based; conditions: Homo sapiens
Method: as §4, §7

[18] = tested on: FaDu; test: NRU anti-proliferative assay; type: cell-based, human
Method: as §4, §7

[19] = target: Lipoxygenase-5 (LOX-5) (Homo sapiens, UniProt P09917); test: LOX-5 activity assay in cell lysate
Method: as §9

[20] = tested on: HDAC-6; test: ELISA kit assay in FaDu cells; type: cell-based, human
Method: (§8) The PI3K expression was determined using a kit procured from Bioassay Technology (Catalog No. E0896Hu). The protocol measured the AKT (Catalog No. 201-12-0893) and HDAC-6 (Catalog No. 201-12-2132) as indicated in the human-specific ELISA kit from Sun Red Company, China. mTOR (Catalog No. E-EL-H1655) was quantified by a kit purchased from ELab Sciences, USA. The VEGF (Catalog No. ab100663) and HIF-1α (Catalog No. ab171577) were estimated using a kit procured from Abcam, UK.

[21] = tested on: PI3K; test: ELISA kit assay in FaDu cells; type: cell-based, human
Method: as §8

[22] = tested on: mTOR; test: ELISA kit assay in FaDu cells; type: cell-based, human
Method: as §8

[23] = tested on: VEGF; test: ELISA kit assay in FaDu cells; type: cell-based, human; conditions: both tested concentrations
Method: as §8

[24] = tested on: AKT; test: ELISA kit assay in FaDu cells; type: cell-based, human
Method: as §8

[25] = tested on: HIF-1α; test: ELISA kit assay in FaDu cells; type: cell-based, human; conditions: both tested concentrations
Method: as §8

[26] = target: T3, Dihydrofolate reductase (DHFR) (Homo sapiens, UniProt P00374); test: DHFR activity assay in lysate of treated cells; conditions: cell-based test system, higher tested concentration 100 μM
T3 construct: endogenous in cells; host or cells: FaDu, K562, A549
Method: as §1
In one set, ~10 μg of cell lysate was incubated with a reaction cocktail (2.3 mM DHFA, 0.11 mM β-NADPH in 50 mM potassium phosphate buffer, and pH 6.5), while another set was incubated in the reaction cocktail containing 0.1% bovine serum albumin (BSA) solution. The reaction mixture was mixed, and the kinetic study was performed at 340 nm for 5 min. The results were calculated using percentage inhibition concerning control ([31]). The ODC activity was determined by the modified method reported by Luqman et al. ([32]). Approximately 10 μg of cell lysate was added to the reaction cocktail (2.5 mM β-mercaptoethanol, 1.5 mM EDTA, 75 nM pyridoxal-phosphate, 3 mM L-ornithine hydrochloride in 150 mM potassium phosphate buffer, and pH 7.1). Approximately, 400 μl of 1 M perchloric acid was used to terminate the reaction, and NaOH (4N) was added to the supernatant. Further, 1-pentanol was added after centrifugation. Then, the upper organic phase was transferred to a microcentrifuge tube with 200 μl sodium borate, 200 μl TNBS, and 400 μl DMSO. Further, it was centrifuged, and 60 μl of supernatant was taken in plate, and absorbance was measured at 412 nm. The graph was plotted in the terms of percentage inhibition.

[27] = tested on: FaDu cells; test: Annexin V-FITC/PI apoptosis assay; type: cell-based, human
Method: as §3

[28] = higher concentration (4 x IC50), 24 h

T1 sequence (P07339 65-412): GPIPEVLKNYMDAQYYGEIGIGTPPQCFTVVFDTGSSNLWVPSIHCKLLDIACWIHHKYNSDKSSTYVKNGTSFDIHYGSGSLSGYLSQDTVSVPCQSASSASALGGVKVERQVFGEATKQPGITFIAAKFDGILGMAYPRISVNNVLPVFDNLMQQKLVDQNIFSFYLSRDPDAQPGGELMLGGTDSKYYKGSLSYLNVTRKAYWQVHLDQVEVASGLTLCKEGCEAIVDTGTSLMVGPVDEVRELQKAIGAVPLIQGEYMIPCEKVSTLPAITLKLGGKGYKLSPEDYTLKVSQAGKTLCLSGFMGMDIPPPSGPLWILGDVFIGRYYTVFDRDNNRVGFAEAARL
Sequence of Lipoxygenase-5 (LOX-5) (P09917 whole entry): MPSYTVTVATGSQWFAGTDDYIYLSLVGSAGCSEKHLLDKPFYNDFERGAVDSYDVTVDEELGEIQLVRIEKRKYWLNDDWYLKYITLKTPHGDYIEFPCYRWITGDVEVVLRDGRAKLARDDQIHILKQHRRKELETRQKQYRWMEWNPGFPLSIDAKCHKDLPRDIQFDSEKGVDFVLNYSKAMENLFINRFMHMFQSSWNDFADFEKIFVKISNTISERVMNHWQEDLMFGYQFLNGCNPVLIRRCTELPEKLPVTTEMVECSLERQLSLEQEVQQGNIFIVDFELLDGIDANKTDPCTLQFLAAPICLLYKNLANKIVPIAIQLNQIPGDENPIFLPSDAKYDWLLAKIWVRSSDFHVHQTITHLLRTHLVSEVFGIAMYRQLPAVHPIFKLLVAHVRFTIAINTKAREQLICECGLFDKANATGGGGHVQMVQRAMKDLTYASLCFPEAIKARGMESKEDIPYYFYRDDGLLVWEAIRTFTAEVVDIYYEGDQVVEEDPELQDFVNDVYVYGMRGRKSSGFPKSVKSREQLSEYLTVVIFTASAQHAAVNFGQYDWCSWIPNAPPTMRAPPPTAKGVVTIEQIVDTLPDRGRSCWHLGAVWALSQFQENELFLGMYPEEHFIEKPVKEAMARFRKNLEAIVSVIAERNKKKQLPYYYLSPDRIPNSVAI
T3 sequence (P00374 whole entry): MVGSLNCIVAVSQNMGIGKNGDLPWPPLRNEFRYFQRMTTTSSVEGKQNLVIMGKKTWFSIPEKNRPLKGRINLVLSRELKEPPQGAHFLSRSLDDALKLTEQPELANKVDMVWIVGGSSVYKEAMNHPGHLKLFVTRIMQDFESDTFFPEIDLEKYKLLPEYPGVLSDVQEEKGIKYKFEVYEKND
T2 sequence (P11926 whole entry): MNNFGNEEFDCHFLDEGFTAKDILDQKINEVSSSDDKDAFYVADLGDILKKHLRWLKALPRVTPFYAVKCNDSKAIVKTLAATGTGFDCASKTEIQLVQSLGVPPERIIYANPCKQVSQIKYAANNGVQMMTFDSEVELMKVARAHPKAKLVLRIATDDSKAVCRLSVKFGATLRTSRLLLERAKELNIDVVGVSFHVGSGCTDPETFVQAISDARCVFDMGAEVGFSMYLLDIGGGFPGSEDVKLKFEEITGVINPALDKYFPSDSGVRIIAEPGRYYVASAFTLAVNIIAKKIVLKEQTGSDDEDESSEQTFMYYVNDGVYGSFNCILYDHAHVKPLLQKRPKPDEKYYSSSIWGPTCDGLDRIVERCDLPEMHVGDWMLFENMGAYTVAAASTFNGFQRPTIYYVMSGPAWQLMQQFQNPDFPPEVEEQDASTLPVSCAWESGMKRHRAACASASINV
Sequence of Cyclooxygenase-2 (COX-2) (P35354 18-604): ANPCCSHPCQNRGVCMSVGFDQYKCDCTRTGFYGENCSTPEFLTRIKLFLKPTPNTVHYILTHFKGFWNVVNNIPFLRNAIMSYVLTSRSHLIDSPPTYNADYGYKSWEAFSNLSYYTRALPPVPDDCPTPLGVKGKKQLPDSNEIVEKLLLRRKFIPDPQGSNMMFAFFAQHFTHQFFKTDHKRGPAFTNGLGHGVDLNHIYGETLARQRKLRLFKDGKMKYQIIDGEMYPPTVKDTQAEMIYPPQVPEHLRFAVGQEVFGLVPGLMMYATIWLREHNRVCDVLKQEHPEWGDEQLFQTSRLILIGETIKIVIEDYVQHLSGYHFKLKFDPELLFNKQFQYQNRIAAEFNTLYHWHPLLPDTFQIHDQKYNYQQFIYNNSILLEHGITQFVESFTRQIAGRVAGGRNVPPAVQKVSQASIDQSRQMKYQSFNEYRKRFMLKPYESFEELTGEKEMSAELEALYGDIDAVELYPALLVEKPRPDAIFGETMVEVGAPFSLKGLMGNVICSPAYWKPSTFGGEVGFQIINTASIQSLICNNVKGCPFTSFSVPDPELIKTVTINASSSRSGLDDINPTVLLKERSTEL

Cc1ccc(C(C)C)cc1O [carvacrol, 5-isopropyl-2-methyl phenol]
reduction of HYAL enzyme action ([1]; A549, 100 μM): 39.15% | IC50 ([1]; FaDu): 88.1 ± 10.4 µM | IC50 ([1]; K562): 62 ± 8.4 µM | suppression of CATD activity ([2]; A549): 2 ± 0.52% | suppression of CATD activity ([2]; FaDu): 18.48 ± 0.33% | suppression of CATD activity ([2]; K562): 5 ± 0.94% | reduction of COX-2 activity [3]: 13.33% | mitochondrial membrane potential [4]: diminishes the membrane potential of the FaDu cell line at the tested concentrations | IC50 [5]: 9.61 ± 0.05 µM | reduction of ODC activity [6]: 35.68% | IC50 [7]: 81.3 ± 11.8 µM | IC50 [8]: 42 ± 11.4 µM | minimum inhibitory concentration (MIC) [9]: 0.015–0.03 % v/v | cell cycle phase arrest [10]: arrests the G2/M phase of FaDu cells in a dose-dependent manner | sub-diploid population [10]: raises the sub-diploid population number | reduction of proliferation [11]: up to 24% | reduction of proliferation [12]: up to 24% | reduction of proliferation [13]: up to 24% | cell growth inhibition [14]: approximately 25% | Tumor growth inhibition ([15]; 25 mg/kg bw i.p.): 28.12% | Tumor cell count Mean ± S.E ([15]; 25 mg/kg bw i.p.): 57.5 ± 8.72 1 × 10^7 | Tumor volume Mean ± S.E ([15]; 25 mg/kg bw i.p.): 3.5 ± 0.54 mL | Tumor weight Mean ± S.E ([15]; 25 mg/kg bw i.p.): 3.36 ± 0.60 g | Tumor growth inhibition ([15]; 50 mg/kg bw i.p.): 55.94% | Tumor cell count Mean ± S.E ([15]; 50 mg/kg bw i.p.): 35.25 ± 4.68^** 1 × 10^7 | Tumor volume Mean ± S.E ([15]; 50 mg/kg bw i.p.): 1.57 ± 0.25 mL | Tumor weight Mean ± S.E ([15]; 50 mg/kg bw i.p.): 1.39 ± 0.33 g | Tumor growth inhibition ([15]; 75 mg/kg bw i.p.): 72.62% | Tumor volume Mean ± S.E ([15]; 75 mg/kg bw i.p.): 1.16 ± 0.34 mL | Tumor weight Mean ± S.E ([15]; 75 mg/kg bw i.p.): 1.10 ± 0.41 g | effect on mice bw ([15]; 75, 50 and 25 mg/kg bw i.p.): no adverse effect | mortality ([15]; during the experimental period): no mortality was noticed | ROS production [16]: increases the ROS production in FaDu cell line in a dose-dependent manner; however, the effect was non-significant | IC50 [17]: 80.9 ± 8.28 µM | growth inhibition [18]: 35.32 ± 2.85% | suppression of LOX-5 activity ([19]; A549): < 50% | suppression of LOX-5 activity ([19]; K562): < 50% | effect on HDAC-6 activity [20]: inhibits HDAC-6 activity in a dose-dependent manner | effect on PI3K activity [21]: suppresses the activity of the PI3K/AKT at the higher tested concentration | effect on mTOR activity [22]: reduces the activity | effect on VEGF activity [23]: the effect was non-significant | effect on AKT activity [24]: suppresses the activity of the PI3K/AKT at the higher tested concentration | effect on HIF-1α activity [25]: the effect was non-significant | suppression of DHFR enzyme action [26]: up to 7% | significance of effect on apoptosis and necrosis ([27]; Annexin V-FITC and PI): non-significant | early apoptosis (A+/P-) [27, 28]: 0.1% | late apoptosis (A+/P+) [27, 28]: 1.4% | necrosis (A-/P+) [27, 28]: 3.4%

Source: PMC9028219 (Frontiers in Nutrition, 2022)
